{"source": "patent US6696470B2", "about": "“Pyridylthiophene compounds” (Pfizer Inc., priority 1997, dated 2004)"}
{"smiles": "O=S(=O)(c1cc(-c2ccncc2)sc1-c1ccncc1)N1CCCC1", "note": "[Example 25, 2,5-Di(4-pyridyl)-3-(pyrrolidine-1-sulfonyl)thiophene]", "melting point": "193 to 195 °C"}
{"smiles": "O=C1CCc2c(-c3ccncc3)sc(-c3cccnc3)c21", "note": "[Example 63, 1-(4-Pyridyl)-3-(3-pyridyl)-5,6-dihydro-4H-cyclopenta(c)thiophene-4-one]", "melting point": "214 to 216 °C"}
{"smiles": "CC(C)OC(=O)c1cc(-c2ccncc2)sc1-c1ccncc1", "note": "[Example 60, 3-(Isopropyloxycarbonyl)-2,5-di(4-pyridyl)thiophene]", "melting point": "139 to 142 °C"}
{"smiles": "O=C1CCc2c(-c3ccncc3)sc(-c3ccc(F)cc3)c21", "note": "[Example 58, 3-(4-Fluorophenyl)-1-(4-pyridyl)-5,6-dihydro-4H-cyclopenta(c)thiophene-4-one]", "melting point": "193 to 195 °C"}
{"smiles": "CC(=O)c1c(-c2ccsc2)sc(-c2ccncc2)c1C", "note": "[Example 35, 3-Acetyl-4-methyl-5-(4-pyridyl)-2-(3-thienyl)thiophene]", "melting point": "98 to 100 °C"}
{"smiles": "CC(=O)c1c(-c2ccc(F)cc2)sc(-c2ccncc2)c1C", "note": "[Example 32, 3-Acetyl-2-(4-fluorophenyl)-4-methyl-5-(4-pyridyl)thiophene]", "melting point": "116 to 118 °C"}
{"smiles": "Cc1c(-c2ccncc2)sc2c1C(=O)CCC2", "note": "[Example 20, 3-Methyl-4-oxo-2-(4-pyridyl)4,5,6,7-tetrahydrobenzothiophene]", "melting point": "129 to 130 °C"}
{"smiles": "CC(=O)c1cc(-c2ccncc2)sc1Oc1cccc(Oc2ccc(F)cc2)c1.Cl", "melting point": "251 to 253 °C"}
{"smiles": "Cc1c(-c2ccncc2)sc(-c2ccncc2)c1CNO.Cl.Cl.Cl", "melting point": "219 to 222 °C (dec.)"}
{"smiles": "CC(=O)c1cc(-c2ccncc2)sc1N1CCN(C)CC1", "note": "[Example 38, 3-Acetyl-2-(4-methylpiperazin-1-yl)-5-(4-pyridyl)thiophene]", "melting point": "115 to 117 °C"}
{"smiles": "CC(=O)c1cc(-c2ccncc2)sc1-c1ccncc1", "note": "[Example 24, 3-Acetyl-2,5-di(4-pyridyl)thiophene]", "melting point": "117 to 119 °C"}
{"smiles": "CC(=O)c1sc(-c2ccncc2)c(-c2ccncc2)c1C", "note": "[Example 14, 2-Acetyl-3-methyl-4,5-di(4-pyridyl)thiophene]", "melting point": "140 to 142 °C"}
{"smiles": "CC(=O)c1c(CC(C)C)oc(-c2ccncc2)c1C.Cl", "melting point": "171 to 174 °C"}
{"smiles": "COC(=O)c1cc(-c2ccncc2)sc1-c1ccncc1", "note": "[Example 23, 2,5-Di(4-pyridyl)-3-methoxycarbonylthiophene]", "melting point": "133 to 135 °C"}
{"smiles": "NC(=O)c1cc(-c2ccncc2)sc1-c1ccncc1", "note": "[Example 59, 2,5-Di(4-pyridyl)-3-thiophenecarboxamide]", "melting point": "240 to 242 °C"}
{"smiles": "NC(=O)CCc1cc(-c2ccncc2)sc1-c1ccncc1", "note": "[Example 70, 3-[2,5-di-(4-pyridyl)3-thienyl]propionamide]", "melting point": "196 to 196.5 °C"}
{"smiles": "Cc1c(-c2ccncc2)oc2c1C(=O)C(C)(C)CC2", "note": "[Example 6, 4-Oxo-2-(4-pyridyl)-3,5,5-trimethyl-4,5,6,7-tetrahydrobenzofuran]", "melting point": "133 to 134 °C"}
{"smiles": "CC(=O)c1c(-c2ccncc2)sc(Cl)c1C", "note": "[Example 17, 3-Acetyl-5-chloro-4-methyl-2-(4-pyridyl)thiophene]", "melting point": "60 to 61 °C"}
{"smiles": "CC(=O)c1sc(-c2ccncc2)c(C)c1-c1ccncc1", "note": "[Example 13, 2-Acetyl-4-methyl-3,5-di(4-pyridyl)thiophene]", "melting point": "117 to 118 °C"}
{"smiles": "O=C(c1ccccc1)c1cc(-c2ccncc2)sc1-c1ccncc1", "note": "[Example 33, 3-Benzoyl-2,5-di(4-pyridyl)thiophene]", "melting point": "168 to 170 °C"}
{"smiles": "CSc1sc(-c2ccncc2)c2c1C(=O)CCC2", "note": "[Example 47, 3-Methylthio-1-(4-pyridyl)-4,5,6,7-tetrahydrobenzo(c)thiophen-4-one]", "melting point": "115 to 116 °C"}
{"smiles": "CC(=O)c1cc(-c2ccncc2)sc1Oc1cc(F)ccc1F", "note": "[Example 57, 3-Acetyl-2-(2,5-difluorophenoxy)-5-(4-pyridyl)thiophene]", "melting point": "119 to 121 °C"}
{"smiles": "Cc1c(-c2ccncc2)oc2c1C(=O)OC(C)C2", "note": "(stereo not shown) [Example 10, 6,7-Dihydro-3,6-dimethyl-2-(4-pyridyl)-furo[3,2-c]pyran-4-one]", "melting point": "157 to 160 °C"}
{"smiles": "CC(=O)c1cc(-c2ccncc2)sc1Oc1ccccc1", "note": "[Example 42, 3-Acetyl-2-phenoxy-5-(4-pyridyl)thiophene]", "melting point": "103 to 105 °C"}
{"smiles": "O=C1CCCc2sc(-c3ccncc3)cc21", "note": "[Example 16, 4-Oxo-2-(4-pyridyl)-4,5,6,7-tetrahydro-benzo(b)thiophene]", "melting point": "156 to 158 °C"}
{"smiles": "CC(=O)c1cc(-c2ccncc2)sc1N(C)Cc1ccccc1.Cl", "melting point": "199 to 202 °C"}
{"smiles": "Cc1c(-c2ccncc2)oc2c1C(=O)CCC2", "note": "[Example 2, 3-Methyl-4-oxo-2-(4-pyridyl)-4,5,6,7-tetrahydrobenzofuran]", "melting point": "136 to 138 °C"}
{"smiles": "CSc1ccc(-c2sc(-c3ccncc3)c(C)c2C(C)=O)cc1", "note": "[Example 36, 3-Acetyl-4-methyl-5-(4-pyridyl)-2-(4-methylthiophenyl)thiophene]", "melting point": "106 to 108 °C"}
{"smiles": "Cc1c(-c2ccncc2)sc(-c2ccncc2)c1C(C)O", "note": "(stereo not shown) [Example 21, 2,5-Di(4-pyridyl)-3-(1-hydroxyethyl)-4-methylthiophene]", "melting point": "155 to 157 °C"}
{"smiles": "O=C1CCc2c(-c3ccncc3)sc(-c3ccccc3F)c21", "note": "[Example 53, 3-(2-Fluorophenyl)-1-(4-pyridyl)-5,6-dihydro-4H-cyclopenta(c)thiophene-4-one]", "melting point": "133 to 135 °C"}
{"smiles": "N#Cc1cc(-c2ccncc2)sc1-c1ccncc1", "note": "[Example 29, 3-Cyano-2,5-di(4-pyridyl)thiophene]", "melting point": "205 to 207 °C"}
{"smiles": "CC1(C)CCC(=O)c2c1oc(-c1ccncc1)c2-c1ccccc1", "note": "[Example 12, 7,7-Dimethyl-3-phenyl-4-oxo-2-(4-pyridyl)4,5,6,7-tetrahydrobenzofuran]", "melting point": "156 to 157 °C"}
{"smiles": "O=C1CCc2c(-c3ccncc3)sc(-c3ccc(C(F)(F)F)cc3)c21", "note": "[Example 66, 1-(4-Pyridyl)-3-(4-trifluoromethylphenyl)-5,6-dihydro-4H-cyclopenta(c)thiophene-4-one]", "melting point": "158 to 160 °C"}
{"smiles": "Cc1c(-c2ccncc2)oc2c1C(=O)CCC2(C)C", "note": "[Example 7, 4-Oxo-2-(4-pyridyl)-3,7,7-trimethyl-4,5,6,7-tetrahydrobenzofuran]", "melting point": "138 to 140 °C"}
{"smiles": "O=C1CCc2c(Cl)sc(-c3ccncc3)c21", "note": "[Example 54, 1-Chloro-3-(4-pyridyl)-5,6-dihydro-4H-cyclopenta(c)thiophene-4-one]", "melting point": "163 to 165 °C"}
{"smiles": "CCc1c(-c2ccncc2)oc2c1C(=O)CCC2(C)C", "note": "[Example 11, 3-Ethyl-7,7-dimethyl-4-oxo-2-(4-pyridyl)-4,5,6,7-tetrahydrobenzofuran]", "melting point": "86 to 88 °C"}
{"smiles": "Cc1c(-c2ccncc2)sc(-c2ccncc2)c1C=NO.Cl.Cl", "melting point": "258 to 261 °C (dec.)"}
{"smiles": "O=C1CCc2c(-c3ccncc3)sc(-c3ccncc3)c21", "note": "[Example 22, 1,3-Di(4-pyridyl)-5,6-dihydro-4H-cyclopenta(c)thiophen-4-one]", "melting point": "168 to 170 °C"}
{"smiles": "CN(C)C(=O)CCc1cc(-c2ccncc2)sc1-c1ccncc1", "note": "[Example 49, N,N-Dimethyl-3-[2,5-di-(4-pyridyl)3-thienyl]propionamide]", "melting point": "166.5 to 167 °C"}
{"smiles": "CC(=O)c1c(-c2ccccc2)sc(-c2ccncc2)c1C", "note": "[Example 19, 3-Acetyl-4-methyl-2-phenyl-5-(4-pyridyl)thiophene]", "melting point": "111 to 112 °C"}
{"smiles": "O=C1CCCc2c(-c3ccncc3)sc(-c3ccncc3)c21", "note": "[Example 41, 1,3-Di(4-pyridyl)-4,5,6,7-tetrahydrobenzo(c)thiophen-4-one]", "melting point": "157 to 160 °C"}
{"smiles": "CNC(=O)c1cc(-c2ccncc2)sc1-c1ccncc1", "note": "[Example 52, N-Methyl-{2,5-di(4-pyridyl)thiophen-3-yl}carboxamide]", "melting point": "197 to 199 °C"}
{"smiles": "CC(=O)c1c(-c2ccccc2)oc(-c2ccncc2)c1C", "note": "[Example 3, 3-Acetyl-4-methyl-2-phenyl-5-(4-pyridyl)furan]", "melting point": "108 to 110 °C"}
{"smiles": "O=C1CCCc2c(Cl)sc(-c3ccncc3)c21", "note": "[Example 45, 1-Chloro-3-(4-pyridyl)-4,5,6,7-tetrahydrobenzo(c)thiophen-4-one]", "melting point": "93 to 95 °C"}
{"smiles": "CC(=O)c1c(-c2ccncc2)sc(-c2ccncc2)c1C", "note": "[Example 15, 3-Acetyl-4-methyl-2,5-di(4-pyridyl)thiophene]", "melting point": "137 to 138 °C"}
{"smiles": "O=C1CCc2c(-c3ccc(F)cc3)sc(-c3ccncc3)c21", "note": "[Example 67, 1-(4-Fluorophenyl)-3-(4-pyridyl)-5,6-dihydro-4H-cyclopenta(c)thiophene-4-one]", "melting point": "155 to 157 °C"}
{"smiles": "Cc1c(-c2ccncc2)sc(-c2ccncc2)c1CF", "note": "[Example 65, 2,5-Di(4-pyridyl)-3-fluoromethyl-4-methylthiophene]", "melting point": "148 to 148.5 °C"}
{"smiles": "CC(=O)c1c(C)sc(-c2ccncc2)c1C", "note": "[Example 18, 3-Acetyl-2,4-dimethyl-5-(4-pyridyl)thiophene]", "melting point": "80 to 81 °C"}
{"smiles": "CCOC(=O)CCc1cc(-c2ccncc2)sc1-c1ccncc1.Cl.Cl", "melting point": "205 to 208 °C (dec.)"}
{"smiles": "CC(=O)c1csc(-c2ccncc2)c1C", "note": "[Example 27, 4-Acetyl-3-methyl-2-(4-pyridyl)thiophene]", "melting point": "87 to 87.5 °C"}
{"smiles": "CC(=O)c1cc(-c2ccncc2)sc1Oc1ccccc1F", "note": "[Example 56, 3-Acetyl-2-(2-fluorophenoxy)-5-(4-pyridyl)thiophene]", "melting point": "93 to 96 °C"}
{"smiles": "CC(=O)c1c(C)oc(-c2ccncc2)c1C", "note": "[Example 1, 3-Acetyl-2,4-dimethyl-5-(4-pyridyl)furan]", "melting point": "65 to 66.5 °C"}
{"smiles": "Cc1c(-c2ccncc2)sc(-c2ccncc2)c1C=O", "note": "[Example 34, 2,5-Di(4-pyridyl)-4-methylthiophene-3-carbaldehyde]", "melting point": "139 to 139.5 °C"}
{"smiles": "CC(=O)c1sc2sc(-c3ccncc3)c(C)c2c1C", "note": "[Example 43, 2-Acetyl-3,4-dimethyl-5-(4-pyridyl)thieno[2,3-b]thiophene]", "melting point": "171 to 173 °C"}
{"smiles": "CC(=O)c1cc(-c2ccncc2)sc1Oc1ccc(F)cc1", "note": "[Example 62, 3-Acetyl-2-(4-fluorophenoxy)-5-(4-pyridyl)thiophene]", "melting point": "147 to 149 °C"}
